In patent publication US9782412B2, “Preventive and/or therapeutic agent of immune disease” (TAIHO PHARMACEUTICAL CO., LTD., priority 2015, dated 2017):

Tests used:
[1] = molecular target: T1, recombinant human BTK protein (Homo sapiens, UniProt Q06187); assay: Measurement of BTK inhibitory activity (in vitro); format: biochemical; conditions: ATP 45 μM, 40 minutes at 25° C.
T1 construct: purchased Carna Biosciences, Inc
Excerpt: Regarding the setting of the conditions for a method for measuring the inhibitory activity of a compound against BTK kinase activity in vitro, it is described in the consumable reagent supplies price list for LabChip (registered trademark) series of PerkinElmer, Inc. that FL-PEPTIDE 2 corresponds to a substrate peptide for the measurement of BTK kinase activity. Therefore, FL-PEPTIDE 2 was used as a substrate. The purified recombinant human BTK protein used in the test was purchased from Carna Biosciences, Inc.
Regarding the measurement of the inhibitory activity of the compounds, firstly, the compounds of the present invention were diluted stepwise with DMSO. Subsequently, BTK protein, a substrate peptide (final concentration was 1 μM), magnesium chloride (final concentration was 10 mM), ATP (final concentration was 45 μM), and a DMSO solution of the compounds of the present invention (final concentration of DMSO was 5%) were added to a buffer solution for kinase reaction (20 mM HEPES (pH 7.5), 2 mM dithiotheitol, 0.01% Triton X-100), and after the solution was incubated for 40 minutes at 25° C., a kinase reaction was carried out. The reaction was terminated by adding EDTA thereto so as to obtain a final concentration of 30 mM. Finally, a substrate peptide that was not phosphorylated (S) and a phosphorylated peptide (P) were separated and detected by microchannel capillary electrophoresis with a LabChip EZ Reader II (PerkinElmer, Inc.).

EGFR/BTK = assay: BTK inhibition selectivity compared with EGFR kinase inhibitory activity (in vitro); format: biochemical, human; conditions: ratio of IC50 values
Method: Therefore, a biotinated peptide (biotin-[…]) was produced by referring to the amino acid sequence of the peptide. The purified recombinant human EGFR protein used in the test was purchased from Carna Biosciences, Inc.
Regarding the measurement of the inhibitory activity of the compounds, firstly, the compounds of the present invention were diluted stepwise with DMSO. […] The reaction was terminated by adding EDTA thereto so as to obtain a final concentration of 24 mM. Subsequently, a detection liquid containing Eu-labeled anti-phosphorylated tyrosine antibody PT66 (PerkinElmer, Inc.) and SureLight APC-SA (PerkinElmer, Inc.) was added thereto, and the system was left to stand for 2 hours or longer at room temperature.

TNP-IgE mice = assay: Mouse antigen-induced dermatitis model; format: in vivo; conditions: for Ear swelling control ratio (%): 30 minutes before allergen, 2 hours after antigen; for ear swellings induced by the allergen application: from low dose, compared with Reference compound 1
Excerpt: Type I allergy models accompanied by a skin symptom (a dermatitis model) were produced, with TNP-IgE mice (CLEA Japan, Inc.). The mice are genetically modified BALB/c mice that constantly produce an IgE specific to hapten TNP (trinitrophenol) which is widely used as an allergen (antigen). It is possible to induce an allergic reaction in the mice, only by administering an allergen, without carrying out an immunization. […] An average value of thickening values of both ears was obtained as a value of an individual (provided that a previous value before the allergen application was 0 mm).
Ear swelling control ratio (%) was calculated by the following formula. Ear swelling control ratio (%)=(1−(Average value of ear thickening of compound administered group)/(Average value of ear thickening of vehicle administered group))×100

[2] = Influence on body weight of SD rat by repeated administration; format: in vivo; conditions: 750 mg/kg orally once a day, two weeks
Method: The rats were grouped as follows, with four animals in each group, by a random classification method such that the average body weights of the respective groups would be almost uniform (Day 1).
The body weight change (BWC) was used as an index indicating the systemic toxicity caused by the compound administration. The BWC was calculated by the following formula. BWC (%)=([(Rat body weight on 14 days after the administration)−(Rat body weight at the time of grouping)]/(Rat body weight at the time of grouping))×100
The relative body weight change ratios in the each compound-administered groups were calculated by the following formula when the BWC in the vehicle-administered group was set as 1, and the results are indicated in Table 25. Relative body weight change ratio (%)=(BWC in the compound-administered group)/BWC in the vehicle-administered group)×100

RBL-2H3 cells = assay: Inhibitory activity against allergic reaction using RBL-2H3 cells (PGD2 production); format: cell-based, rat; conditions: Rattus norvegicus, RBL-2H3, RBL-2H3 cells, anti-DNP IgE / DNP-BSA; read-out: PGD2 production inhibitory concentration (IC50; (nM))
Method: Rat basophilic leukemia cells, RBL-2H3, were suspended in MEM medium containing 10% FBS, and then the cells were inoculated in a culture plate, and cultured in a CO2 incubator (Sanyo Electric Biomedical Co., Ltd.) at 37° C. for 12 hours. After a culture supernatant was removed and the cells were washed, an anti-DNP-mouse IgE (Alpha Diagnostic Inc.) solution was added thereto, and the cells were cultured in the CO2 incubator for 1 hour. After a culture supernatant was removed and the cells were washed, an MEM medium was added thereto.
Further, a DNP-BSA (LSL, Inc.) solution was added thereto and the cells were cultured in the CO2 incubator for 15 minutes. A culture supernatant was collected and reacted, with PGD2-MOX EIA kit (Cayman Chemical Inc.) on the basis of the protocol attached thereto, and absorbance was measured by SUNRISE RAINBOW THERMO (TECAM Inc.).

[3] = molecular target: T2, phosphorylated BTK protein in Ramos cells (Homo sapiens, UniProt Q06187); assay: Inhibitory activity against B-cell activation using Ramos cells (BTK phosphorylation); format: cell-based; conditions: anti-human IgM stimulation, pY223 Western blotting, read-out: Phosphorylated BTK inhibitory concentration (IC50, (nM))
T2 construct: endogenous in cells; host or cells: Ramos cells
Method: The human B-cell lymphoma-derived cell line, Ramos cells were suspended in RPMI1640 medium, and then the cells were inoculated in a culture plate at a concentration of 2.0×10^6 (cells/well). The cells were cultured in a CO2 incubator (Sanyo Electric Biomedical Co., Ltd.) at 37° C. for 12 hours. […] Then, 10 minutes of stimulation was provided with Goat F(ab′)2 anti-human IgM antibody-UNLB (southern biotech Corp.). Thereafter, the cells were harvested, and 50 μL of (a cell extract (NP-40; Invitrogen, Inc.) containing 1×protease inhibitor (Hoffmann-La Roche AG) and 1×phosphatase cocktail inhibitor (Sigma-Aldrich Co.)) was added to the cell pellets. The cell pellets were left to stand for 10 minutes on ice. The amount of protein in the collected cell extract was quantitatively analyzed by a DC protein assay (Bio-Rad Laboratories, Inc.), and 20 μg of proteins per lane was applied to a Criterion TGX™ (Bio-Rad Laboratories, Inc.). After electrophoresis was performed, Western blotting was performed with Trans-Blot™ Turbo™ (Bio-Rad Laboratories, Inc.). Thereafter, phosphorylated BTK protein and BTK protein were detected with LAS4000 (GE Healthcare, Inc.) with a BTK phosphor (pY223) antibody (EPITOMICS Inc.) and a BTK antibody (Abcam, plc.).

A431 cells/TMD8 cells = assay: Proliferation inhibitory activity against cell lines expressing BTK and EGFR, comparison of selectivity; format: cell-based, human; conditions: cells cultured three days with compound, CELLTITER GLO
Excerpt: TMD8 cells, which are of a diffuse large B-cell lymphoma cell line expressing BTK, were suspended in RPMI1640 medium (Life Technologies Corp.) containing 10% fetal bovine serum. A431 cells, which are of an EGFR-overexpressing, highly activated human epidermoid carcinoma cell line, were suspended in DMEM, high glucose medium (Life Technologies Corp.) containing 10% fetal bovine serum. The cell suspensions were inoculated into each well of 384-well flat-bottomed microplates, and the cells were cultured for one day at 37° C. in an incubator containing 5% carbon dioxide gas. […] A DMSO solution of the test compounds was diluted with the medium used in the suspension of the each cell, and this was added to each of the wells of the cell culture plates such that the final concentration of DMSO would be 0.2%. The cells were further cultured for three days at 37° C. in an incubator containing 5% carbon dioxide gas. […] Proliferation inhibition ratio (%)=(C−T)/(C−C0)×100
T: Luminescence intensity of a well in which the test compound was added
C: Luminescence intensity of a well in which the test compound was not added
C0: Luminescence intensity of a well measured before the addition of the test compound
When a comparison is made between the cell proliferation inhibitory activity against A431 cells that depends on the EGFR proliferation signaling and the cell proliferation inhibitory activity against TMD8 cells that depends on the BTK proliferation signaling, the influence of the respective kinases at a cellular level is able to be evaluated. That is, when the “A431 cell proliferation inhibition ratio/TMD8 cell proliferation inhibition ratio” is calculated, it is contemplated that as the value of the ratio is larger, the selectivity to BTK over EGFR in the cells is higher.

T1 sequence (Q06187 whole entry): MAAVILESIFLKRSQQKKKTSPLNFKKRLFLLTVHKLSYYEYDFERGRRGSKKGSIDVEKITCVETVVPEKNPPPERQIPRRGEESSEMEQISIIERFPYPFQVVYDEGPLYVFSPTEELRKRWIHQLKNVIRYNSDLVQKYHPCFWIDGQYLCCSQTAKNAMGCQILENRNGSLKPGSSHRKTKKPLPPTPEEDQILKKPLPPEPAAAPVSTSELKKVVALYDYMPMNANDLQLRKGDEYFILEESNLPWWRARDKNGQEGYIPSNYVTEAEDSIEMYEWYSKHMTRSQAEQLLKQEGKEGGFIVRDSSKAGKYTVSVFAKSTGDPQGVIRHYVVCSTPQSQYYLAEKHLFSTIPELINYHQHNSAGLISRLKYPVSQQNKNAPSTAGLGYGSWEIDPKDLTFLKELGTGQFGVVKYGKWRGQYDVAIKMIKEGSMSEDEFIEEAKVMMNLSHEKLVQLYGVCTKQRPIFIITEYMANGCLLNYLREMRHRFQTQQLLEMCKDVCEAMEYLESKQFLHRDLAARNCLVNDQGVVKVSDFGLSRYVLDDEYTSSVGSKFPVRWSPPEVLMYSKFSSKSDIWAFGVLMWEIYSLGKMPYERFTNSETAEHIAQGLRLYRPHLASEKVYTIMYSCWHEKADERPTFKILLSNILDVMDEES
T2 sequence (Q06187 whole entry): as above

Structure (SMILES) | IC50 [1] [nM] | EGFR inhibitory activity IC50 value (nM)/BTK inhibitory activity IC50 value (nM) (EGFR/BTK) | Ear swelling control ratio (%) (TNP-IgE mice; 3 mg/kg oral) | also measured
CN(C)C/C=C/C(=O)N1CC(n2cc(C(=O)Nc3nc4cc(Cl)ccc4o3)c3c(N)ncnc32)C1 [Example 47, (E)-4-amino-N-(5-chlorobenzo[d]oxazol-2-yl)-7-(1-(4-(dimethylamino)but-2-enoyl)azetidin-3-yl) 7H-pyrrolo[2,3-d]pyrimidine-5-carboxamide] | 7.34 | 20.4 |  | 
C=CC(=O)N1CCC[C@@H](n2nc(C(=O)Nc3nc4cc(F)ccc4o3)c3c(N)ncnc32)C1 [Example 12, (R)-1-(1-acryloylpiperidin-3-yl)-4-amino-N-(5-fluorobenzo[d]oxazol-2-yl)-1H-pyrazolo[3,4-d]pyrimidine-3-carboxamide] |  |  | 80 | Ear swelling control ratio (%) (TNP-IgE mice; 1 mg/kg oral): 64%; ear swellings induced by the allergen application (TNP-IgE mice): suppressed equivalently or strongly ear swellings; Relative body weight change ratio (%) [2]: 91.2%; IC50 (RBL-2H3 cells): 15 nM; IC50 [3]: 0.18 nM
C=CC(=O)N1CCC[C@@H](n2nc(C(=O)Nc3nc4cc(Cl)ccc4o3)c3c(N)ncnc32)C1 [Example 1, (R)-1-(1-acryloylpiperidin-3-yl)-4-amino-N-(5-chlorobenzo[d]oxazol-2-yl)-1H-pyrazolo[3,4-d]pyrimidine-3-carboxamide] |  |  | 81 | Ear swelling control ratio (%) (TNP-IgE mice; 1 mg/kg oral): 66%; ear swellings induced by the allergen application (TNP-IgE mice): suppressed equivalently or strongly ear swellings; IC50 (RBL-2H3 cells): 37 nM
C=C(C)C(=O)N1CCC[C@@H](n2nc(C(=O)Nc3nc4cc(F)ccc4o3)c3c(N)ncnc32)C1 [Example 11, (R)-4-amino-N-(5-fluorobenzo[d]oxazol-2-yl)-1-(1-methacryloylpiperidin-3-yl)-1H-pyrazolo[3,4-d]pyrimidine-3-carboxamide] | 2.14 | 1294.6 |  | 
CC#CC(=O)N1CCC[C@@H](n2nc(C(=O)Nc3nc4ccccc4o3)c3c(N)ncnc32)C1 [Example 22] | 14.2 |  |  | 
C/C=C/C(=O)N1CCC[C@@H](n2nc(C(=O)Nc3nc4ccccc4o3)c3c(N)ncnc32)C1 [Example 14, (R,E)-4-amino-N-(benzo[d]oxazol-2-yl)-1-(1-(but-2-enoyl)piperidin-3-yl)-1H-pyrazolo[3,4-d]pyrimidine-3-carboxamide] | 14.1 | 128.1 |  | A431 cell proliferation inhibition ratio/TMD8 cell proliferation inhibition ratio (A431 cells/TMD8 cells): >1400.6

Continued, in another order:

IC50 [1] [nM] | EGFR inhibitory activity IC50 value (nM)/BTK inhibitory activity IC50 value (nM) (EGFR/BTK) | Structure (SMILES) | Ear swelling control ratio (%) (TNP-IgE mice; 3 mg/kg oral) | also measured
1.27 | 22.9 | C=CC(=O)N1CCC[C@@H](n2nc(C(=O)Nc3nc4cc(CCOC)ccc4o3)c3c(N)ncnc32)C1 [Example 8, (R)-1-(1-acryloylpiperidin-3-yl)-4-amino-N-(5-(2-methoxyethyl)benzo[d]oxazol-2-yl)-1H-pyrazolo[3,4-d]pyrimidine-3-carboxamide] |  | 
0.888 |  | C=CC(=O)N1CC[C@@H](n2nc(C(=O)Nc3nc4cc(OC)ccc4o3)c3c(N)ncnc32)C1 [Example 38, (R)-1-(1-acryloylpyrrolidin-3-yl)-4-amino-N-(5-methoxybenzo[d]oxazol-2-yl)-1H-pyrazolo[3,4-d]pyrimidine-3-carboxamide] |  | 
0.777 | 147.4 | CN(C)C/C=C/C(=O)N1CCC[C@@H](n2nc(C(=O)Nc3nc4cc(-c5cccs5)ccc4o3)c3c(N)ncnc32)C1 [Example 21, (R,E)-4-amino-N-(5-(thiophen-2-yl)benzo[d]oxazol-2-yl)-1-(1-(4-(dimethylamino)but-2-enoyl)piperidin-3-yl)-1H-pyrazolo[3,4-d]pyrimidine-3-carboxamide] |  | 
0.738 |  | C=CC(=O)N1CCC[C@@H](n2nc(C(=O)Nc3nc4cc(C#N)ccc4o3)c3c(N)ncnc32)C1 [Example 6, (R)-1-(1-acryloylpiperidin-3-yl)-4-amino-N-(5-cyanobenzo[d]oxazol-2-yl)-1H-pyrazolo[3,4-d]pyrimidine-3-carboxamide] | 45 | A431 cell proliferation inhibition ratio/TMD8 cell proliferation inhibition ratio (A431 cells/TMD8 cells): 2786.0
